According to patent US11339120B2, “Phenyl derivatives as cannabinoid receptor 2 agonists” (priority 2015, dated 2022):
pEC50: −log10 of the molar value. Read-outs that look alike come from different tables or passages of the source.

Tests used:
human CB1 receptors = target: T1, human CB1 receptors (Homo sapiens, UniProt P21554); test: functional cAMP assay, CHO cells expressing human CB1; format: cell-based
T1 construct: expressed in transfected cells; host or cells: CHO cells
Experimental: (§1) CHO cells expressing human CB1 or CB2 receptors are seeded 17-24 hours prior to the experiment 50.000 cells per well in a black 96 well plate with flat clear bottom (Corning Costar #3904) in DMEM (Invitrogen No. 31331), 1×HT supplement, with 10% fetal calf serum and incubated at 5% CO2 and 37° C. in a humidified incubator. The growth medium was exchanged with Krebs Ringer Bicarbonate buffer with 1 mM IBMX and incubated at 30° C. for 30 min. Compounds were added to a final assay volume of 100 μl and incubated for 30 min at 30° C. Using the cAMP-Nano-TRF detection kit the assay (Roche Diagnostics) was stopped by the addition of 50 μl lysis reagent (Tris, NaCl, 1.5% Triton X100, 2.5% NP40, 10% NaN3) and 50 μl detection solutions (20 μM mAb Alexa700-cAMP 1:1, and 48 μM Ruthenium-2-AHA-cAMP) and shaken for 2 h at room temperature. The time-resolved energy transfer is measured by a TRF reader (Evotec Technologies GmbH), equipped with a ND:YAG laser as excitation source. The plate is measured twice with the excitation at 355 nm and at the emission with a delay of 100 ns and a gate of 100 ns, total exposure time 10 s at 730 (bandwidth 30 nm) or 645 nm (bandwidth 75 nm), respectively. The FRET signal is calculated as follows: FRET=T730-Alexa730-P(T645-B645) with P=Ru730-B730/Ru645-B645, where T730 is the test well measured at 730 nM, T645 is the test well measured at 645 nm, B730 and B645 are the buffer controls at 730 nm and 645 nm, respectively. cAMP content is determined from the function of a standard curve spanning from 10 μM to 0.13 nM cAMP.
(§2) EC50 values were determined using Activity Base analysis (ID Business Solution, Limited). The EC50 values for a wide range of cannabinoid agonists generated from this assay were in agreement with the values published in the scientific literature.

human CB2 receptors = target: T2, human CB2 receptors (Homo sapiens, UniProt P34972); test: functional cAMP assay, CHO cells expressing human CB2; format: cell-based
T2 construct: expressed in transfected cells; host or cells: CHO cells
Experimental: as §1, §2

[1] = functional cAMP assay, CHO cells expressing human CB2, read-out: Human CB2 EC50

T2 sequence (P34972 whole entry): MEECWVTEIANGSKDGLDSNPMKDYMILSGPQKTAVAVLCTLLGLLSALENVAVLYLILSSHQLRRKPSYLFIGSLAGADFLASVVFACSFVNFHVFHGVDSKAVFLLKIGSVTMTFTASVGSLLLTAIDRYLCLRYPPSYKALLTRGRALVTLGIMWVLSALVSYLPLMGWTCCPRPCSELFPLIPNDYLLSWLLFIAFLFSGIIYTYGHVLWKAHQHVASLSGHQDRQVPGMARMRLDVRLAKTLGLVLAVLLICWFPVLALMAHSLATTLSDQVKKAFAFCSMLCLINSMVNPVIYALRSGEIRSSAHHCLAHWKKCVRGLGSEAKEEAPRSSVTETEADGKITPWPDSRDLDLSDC
T1 sequence (P21554 whole entry): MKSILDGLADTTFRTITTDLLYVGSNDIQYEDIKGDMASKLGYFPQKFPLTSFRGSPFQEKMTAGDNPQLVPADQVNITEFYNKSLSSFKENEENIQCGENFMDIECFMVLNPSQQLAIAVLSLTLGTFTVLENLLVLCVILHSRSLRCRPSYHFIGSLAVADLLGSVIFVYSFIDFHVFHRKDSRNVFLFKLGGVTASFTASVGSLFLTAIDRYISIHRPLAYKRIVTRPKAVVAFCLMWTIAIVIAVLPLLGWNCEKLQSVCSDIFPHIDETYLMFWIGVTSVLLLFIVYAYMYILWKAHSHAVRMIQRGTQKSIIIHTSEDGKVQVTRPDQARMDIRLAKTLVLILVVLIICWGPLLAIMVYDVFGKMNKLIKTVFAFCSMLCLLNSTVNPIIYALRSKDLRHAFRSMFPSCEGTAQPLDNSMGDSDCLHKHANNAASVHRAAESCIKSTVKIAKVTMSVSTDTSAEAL

SMILES	pEC50 (human CB1 receptors)	pEC50 (human CB2 receptors)	pEC50 (human CB2 receptors; [1])
Cc1nc([C@@](C)(CC2CC2)NC(=O)c2ccc(C3CC3)c(OCC(F)(F)F)c2)no1 [Example 25, (−)-4-Cyclopropyl-N-[1-cyclopropyl-2-(5-methyl-1,2,4-oxadiazol-3-yl)propan-2-yl]-3-(2,2,2-trifluoroethoxy)benzamide]	< 5.00	7.39	–
C[C@@](CC(N)=O)(NC(=O)c1ccc(C2CC2)c(OCCF)c1)C1CC1 [Example 54, N-[(2S)-4-Amino-2-cyclopropyl-4-oxobutan-2-yl]-4-cyclopropyl-3-(2-fluoroethoxy)benzamide]	< 5.00	6.64	–
CCC(CC)(NC(=O)c1ccc(C2CC2)c(OCC2CC2)c1)C(=O)N1CC(F)(F)C1 [Example 9, 4-Cyclopropyl-3-(cyclopropylmethoxy)-N-[3-(3,3-difluoroazetidine-1-carbonyl)pentan-3-yl]benzamide]	< 5.00	8.12	–
Cc1nc(C(NC(=O)c2ccc(C3CC3)c(OCC(F)(F)F)c2)C2(C)COC2)no1 (stereo not shown) [Example 67, 4-Cyclopropyl-N-[(5-methyl-1,2,4-oxadiazol-3-yl)(3-methyloxetan-3-yl)methyl]-3-(2,2,2-trifluoroethoxy)benzamide]	< 5.00	–	6.58
NC(=O)CC1(NC(=O)c2ccc(C3CC3)c(OCC3CC3)c2)COC1 [Example 15, N-[3-(2-Amino-2-oxoethyl)oxetan-3-yl]-4-cyclopropyl-3-(cyclopropylmethoxy)benzamide]	< 5.00	7.47	–
Cc1nc([C@@](C)(CC2CC2)NC(=O)c2ccc(C3CC3)c(-c3ccc(F)nc3)c2)no1 [Example 50, 4-Cyclopropyl-N-[(2R)-1-cyclopropyl-2-(5-methyl-1,2,4-oxadiazol-3-yl)propan-2-yl]-3-(6-fluoropyridin-3-yl)benzamide]	< 5.00	7.27	–
NC(=O)[C@@H]1CC(F)(F)CN1C(=O)c1ccc(C2CC2)c(N2CCC(F)(F)C2)c1 [Example 65, 1-[4-Cyclopropyl-3-(3,3-difluoropyrrolidin-1-yl)benzoyl]-4,4-difluoro-L-prolinamide]	< 5.00	7.74	–
Cc1nc([C@](C)(CS(C)(=O)=O)NC(=O)c2ccc(C3CC3)c(OCC(F)(F)F)c2)no1 [Example 28, 4-Cyclopropyl-N-[(2R)-1-(methanesulfonyl)-2-(5-methyl-1,2,4-oxadiazol-3-yl)propan-2-yl]-3-(2,2,2-trifluoroethoxy)benzamide]	< 5.00	7.10	–
CNC(=O)[C@@H](NC(=O)c1ccc(C2CC2)c(OCCF)c1)C(C)(C)C [Example 39, 4-Cyclopropyl-N-[(2S)-3,3-dimethyl-1-(methylamino)-1-oxobutan-2-yl]-3-(2-fluoroethoxy)benzamide]	5.81	7.94	–
NC(=O)[C@@H]1CC(F)(F)CN1C(=O)c1ccc(C2CC2)c(OCC2CC2)c1 [Example 17, 1-[4-Cyclopropyl-3-(cyclopropylmethoxy)benzoyl]-4,4-difluoro-L-prolinamide]	< 5.00	9.29	–
NC(=O)C1CC2(CC2)CN1C(=O)c1ccc(C2CC2)c(OCC2CC2)c1 (stereo not shown) [Example 22, 5-[4-Cyclopropyl-3-(cyclopropylmethoxy)benzoyl]-5-azaspiro[2.4]heptane-6-carboxamide]	< 5.00	7.55	–
CC1(C(CC(N)=O)NC(=O)c2ccc(C3CC3)c(OCC(F)(F)F)c2)COC1 (stereo not shown) [Example 69, N-[3-Amino-1-(3-methyloxetan-3-yl)-3-oxopropyl]-4-cyclopropyl-3-(2,2,2-trifluoroethoxy)benzamide]	< 5.00	–	5.93
CC(C)(C)c1nc(-c2ccc(C3CC3)c(OCCF)c2)no1 [Example 30, 5-tert-Butyl-3-[4-cyclopropyl-3-(2-fluoroethoxy)phenyl]-1,2,4-oxadiazole]	< 5.00	7.42	–
C[C@](CC(N)=O)(NC(=O)c1ccc(C2CC2)c(OCCF)c1)C1CC1 [Example 45, N-[(2R)-4-Amino-2-cyclopropyl-4-oxobutan-2-yl]-4-cyclopropyl-3-(2-fluoroethoxy)benzamide]	< 5.00	8.13	–
Cc1nc(C(C)(C)NC(=O)c2ccc(C3CC3)c(OCC3CC3)c2)no1 [Example 3, 4-Cyclopropyl-3-(cyclopropylmethoxy)-N-[2-(5-methyl-1,2,4-oxadiazol-3-yl)propan-2-yl]benzamide]	< 5.00	–	6.91
Cc1nc([C@@](C)(CC2CC2)NC(=O)c2ccc(C3CC3)c(OCC(F)F)c2)no1 [Example 31, (−)-4-Cyclopropyl-N-[1-cyclopropyl-2-(5-methyl-1,2,4-oxadiazol-3-yl)propan-2-yl]-3-(2,2-difluoroethoxy)benzamide]	< 5.00	7.78	–
Cc1nc([C@@](C)(CC2CC2)NC(=O)c2ccc(C3CC3)c(OCCF)c2)no1 [Example 33]	< 5.00	7.23	–
CC(C)C[C@@H](CO)NC(=O)c1ccc(N2CC(F)(F)C2)c(OCC2CC2)c1 [Example 13, 3-(Cyclopropylmethoxy)-4-(3,3-difluoroazetidin-1-yl)-N-[(2S)-1-hydroxy-4-methylpentan-2-yl]benzamide]	< 5.00	7.66	–
Cc1nc(C(C)(C)NC(=O)c2ccc(C)c(OCC3CC3)c2)no1 [Example 2, 3-(Cyclopropylmethoxy)-4-methyl-N-[2-(5-methyl-1,2,4-oxadiazol-3-yl)propan-2-yl]benzamide]	< 5.00	–	6.31
CNC(=O)[C@@H](NC(=O)c1ccc(C2CC2)c(OC(C)C)c1)C(C)(C)C [Example 37, 4-Cyclopropyl-N-[(2S)-3,3-dimethyl-1-(methylamino)-1-oxobutan-2-yl]-3-[(propan-2-yl)oxy]benzamide]	< 5.00	8.27	–
C[C@@](CC(N)=O)(NC(=O)c1ccc(C2CC2)c(OCC(F)(F)F)c1)C1CC1 (single isomer, unassigned) [Example 35, (−)-N-[4-Amino-2-cyclopropyl-4-oxobutan-2-yl]-4-cyclopropyl-3-(2,2,2-trifluoroethoxy)benzamide]	< 5.00	8.07	–
CNC(=O)[C@@H](NC(=O)c1ccc(C2CC2)c(N2CCC(F)(F)C2)c1)C(C)(C)C [Example 66, 4-Cyclopropyl-3-(3,3-difluoropyrrolidin-1-yl)-N-[(2S)-3,3-dimethyl-1-(methylamino)-1-oxobutan-2-yl]benzamide]	7.38	9.32	–
Cc1nc([C@](C)(CC2CC2)NC(=O)c2ccc(C3CC3)c(OCCF)c2)no1 [Example 34, (+)-4-Cyclopropyl-N-[1-cyclopropyl-2-(5-methyl-1,2,4-oxadiazol-3-yl)propan-2-yl]-3-(2-fluoroethoxy)benzamide]	< 5.00	7.24	–
C[C@@](CC(N)=O)(NC(=O)c1ccc(C2CC2)c(N2CCC(F)(F)C2)c1)C1CC1 [Example 62, N-[(2S)-4-Amino-2-cyclopropyl-4-oxobutan-2-yl]-4-cyclopropyl-3-(3,3-difluoropyrrolidin-1-yl)benzamide]	< 5.00	7.59	–
CC(C)Oc1cc(C(=O)N[C@](C)(CC(N)=O)C2CC2)ccc1C1CC1 [Example 44, N-[(2R)-4-Amino-2-cyclopropyl-4-oxobutan-2-yl]-4-cyclopropyl-3-[(propan-2-yl)oxy]benzamide]	5.96	8.54	–
CC(C)Oc1cc(C(=O)N[C@@](C)(CC(N)=O)C2CC2)ccc1C1CC1 [Example 43, N-[(2S)-4-Amino-2-cyclopropyl-4-oxobutan-2-yl]-4-cyclopropyl-3-[(propan-2-yl)oxy]benzamide]	< 5.00	7.51	–
CNC(=O)[C@H](CC(C)C)NC(=O)c1ccc(N2CC(F)(F)C2)c(OCC2CC2)c1 [Example 12, N^2-[3-(cyclopropylmethoxy)-4-(3,3-difluoroazetidin-1-yl)benzoyl]-N-methyl-L-leucinamide]	< 5.00	7.18	–
Cc1nc([C@](C)(CC2CC2)NC(=O)c2ccc(C3CC3)c(OCC(F)F)c2)no1 [Example 32, (+)-4-Cyclopropyl-N-[1-cyclopropyl-2-(5-methyl-1,2,4-oxadiazol-3-yl)propan-2-yl]-3-(2,2-difluoroethoxy)benzamide]	< 5.00	8.00	–
Cc1nc([C@](C)(CC2CC2)NC(=O)c2ccc(C3CC3)c(N3CCC(F)(F)C3)c2)no1 [Example 64, 4-Cyclopropyl-N-[(2S)-1-cyclopropyl-2-(5-methyl-1,2,4-oxadiazol-3-yl)propan-2-yl]-3-(3,3-difluoropyrrolidin-1-yl)benzamide]	< 5.00	8.97	–
